Reference: patent US10080779B2, “Method for increasing the expression of anti-microbial peptides by keratinocytes comprising administering a composition comprising IL-17, TNF-alpha and OSM” (Universite D'Angers, priority 2004, dated 2018)

Assays:
[1] = tested on: RHE; assay: RHE histology and immunohistochemistry (Example 14); assay type: cell-based, human; conditions: JAKs inhibitor 10 μM with M5 (3 ng/ml), 72 h
Experimental: Normal human epidermal keratinocytes (NHEK) were obtained as previously described, from surgical samples of healthy breast skin (Boniface et al, 2005). NHEK were cultured to 80% of confluence allowing the expression of a large panel of keratinocyte differentiation markers, and then starved for 24 h in Keratinocyte SFM containing 0.03 mM Ca^2+ (Invitrogen Life Technologies, Cergy Pontoise, France) before stimulation. Confluent differentiated cells were stimulated with or without recombinant IL-17A, OSM, TNFα, IL-22 and IL-1α alone at maximum effective concentrations (reported previously around 10 ng/ml (Boniface et al, 2005 and Boniface et al, 2007)) or in combination (R&D systems Europe, Lille, France) during 2 h to 72 h for mRNA quantification. RHE were generated on polycarbonate culture inserts, from surgical samples of paediatric foreskins as previously described (Guenou et al., 2009). RHE were stimulated with or without recombinant IL-17A, OSM, TNFα, IL-22 and IL-1α alone or in combination, with or without a Janus protein Tyrosine Kinases (JAKs) inhibitor 10 μM (Calbiochem, 420099), during 24 h for mRNA quantification or during 72 h for immunohistological analysis.
RHE were washed and fixed with formaldehyde solution. Fixed tissues were dehydrated with increasing ethanol concentrations, embedded in paraffin and sections were carried out using a microtome (4 μm thickness). The sections were deparaffinised, washed and incubated with hydrogen peroxide. The sections were incubated with anti-CK10 (SantaCruz, SC-23877), anti-LOR (Eurogentec, PRB-145P), anti-FLG (SantaCruz, SC-66192), anti-IVL (Biomedical Technologies, BT-601), anti-S100A7 (Clinisciences, IMG-409A) and then detected using a biotin-conjugated secondary antibody (Vector, RTU vectastain universal quick kit, PK-7800). After peroxidase-conjugated streptavidine (Vector, RTU vectastain universal quick kit, PK-7800) and peroxidase substrate addition (Dako, Substrat hyper-sensible AEC+), nuclei were counter-stained using a solution of hematoxylin. Sections were observed using a NIKON E400 microscope. The images were captured using a NIKON DS-Ril and processed with NIS-Elements 3.10 software.

[2] = tested on: NHEK; assay: cDNA macroarrays analysis of 36 cytokines on 154 genes in NHEK; assay type: cell-based, human; conditions: 10 ng/ml, 24 h
Experimental: The comparison of the effects of 36 different cytokines on the expression of 154 genes of potential interest for skin physiology was performed using home-made cDNA macroarrays analysis. After cytokine stimulation, total RNA was extracted using TRIzoI® Reagent (Invitrogen life Technologies) and conventional 33P-cDNA target synthesis and hybridization were performed (Boniface et al, 2007). Genes were considered regulated if expression levels differed more than 3-fold relative to untreated control and 3-fold relative to mean background noise.

[3] = tested on: NHEK; assay: Cytokine measurement by ELISA in NHEK culture supernatants; assay type: cell-based, human; conditions: 96 h, IL-1β for IL-1α, TNFβ for TNFα, IL-17F for IL-17A, IL-24 for IL-22, IL-6 for OSM
Experimental: NHEK were obtained as previously described, from surgical samples of healthy breast skin (Boniface et al, 2005). NHEK were cultured to 80% of confluence and then starved for 24 h in Keratinocyte SFM without addition of growth factors before stimulation. Cells were stimulated with or without 10 ng/ml of recombinant IL-17A, OSM, TNFα, IL-22 and IL-1α alone or in combination (R&D systems Europe, Lille, France) during 24 h for mRNA quantification or 48 h to 96 h for protein quantification.
Levels of BD2, BD3 and CXCL8 were determined using Human ELISA development kit (Peprotech), and CXCL1 and CXCL5 with DuoSet reagents (R&D Systems Europe).

[4] = tested on: normal human keratinocytes (NHEK); assay: Cytokine cocktails on S100A7, hBD2/4, KRT10 mRNA in NHEK (RT-Q-PCR); assay type: cell-based; conditions: NHEK 24 hrs, 1 ng/ml each
Experimental: Quantitative real time PCR was carried out using the LightCycler-FastStart DNA Master^PLUS SYBR Green I kit (Roche, Mannheim, Germany). The reaction components were 1× FastStart DNA Master^PLUS SYBR Green I and 0.5 μM of forward and reverse primers for S100A7 (forward 5′-[…]-3′ (SEQ ID No: 9) and reverse 5′-[…]-3′ (SEQ ID No: 10)), S100A8 (Pattyn, Speleman et al. 2003), S100A9 (forward 5′-[…]-3′ (SEQ ID No: 11) and reverse 5′-[…]-3′ (SEQ ID No: 12)), hBD2/4 (forward 5′-[…]-3′ (SEQ ID No: 13) and reverse 5′-[…]-3′ (SEQ ID No: 14)), KRT10 (forward 5′-[…]-3′ (SEQ ID No: 15) and reverse 5′-[…]-3′ (SEQ ID No: 16)), and hydroxymethyl-bilane synthase (HMBS) as a housekeeping gene (Vandesompele, De Preter et al. 2002). After cDNA fluorescent quantification using propidium iodide, 250 ng, 25 ng and 2.5 ng of cDNA were added as PCR template in the LightCycler glass capillaries. The cycling conditions comprised a 10 min polymerase activation at 95° C. and 50 cycles at 95° C. for 10 s, 64° C. for 5 s and 72° C. for 18 s with a single fluorescence measurement. […] A mathematical model was used to determine the relative quantification of target genes compared to HMBS reference gene (Pfaffl 2001).
To that aim, confluent normal human keratinocytes (NHEK) were treated for 24 hrs with the indicated mix of cytokines (each cytokine at 1 ng/ml final concentration). Total RNA was extracted, reverse-transcribed and the expression of the selected genes was analyzed by real-time PCR as described.

CC(C)(C)c1nc2c3ccc(F)cc3c3c(=O)[nH]ccc3c2[nH]1 [JAKs inhibitor, reference compound]
Effect on M5-induced RHE disruption and hyperplasia [1]: protects the integrity of the RHE and blocked the epidermal hyperplasia

IL-1β: cytokine of the same family as IL-1α
Number of genes (of 154) whose expression is modified with at least a three fold increase or decrease [2]: at least five genes | Redundancy with the family member it replaces in M5 (BD2 and CXCL8 production) [3]: total redundancy

IL-6: cytokine of the same family as OSM
Number of genes (of 154) whose expression is modified with at least a three fold increase or decrease [2]: at least five genes | Redundancy with the family member it replaces in M5 (BD2 and CXCL8 production) [3]: weak redundancy

B1: TNFβ: cytokine of the same family as TNFα (protein, UniProt P01374 35-205, looked up)
Lymphotoxin-alpha: LPGVGLTPSAAQTARQHPKMHLAHSTLKPAAHLIGDPSKQNSLLWRANTDRAFLQDGFSLSNNSLLVPTSGIYFVYSQVVFSGKAYSPKATSSPLYLAHEVQLFSSQYPFHVPLLSSQKMVYPGLQEPWLHSMYHGAAFQLTQGDQLSTHTDGIPHLVLSPSTVFFGAFAL
Redundancy with the family member it replaces in M5 (BD2 and CXCL8 production) [3]: strong redundancy

B2: INFγ: gamma Interferon (protein, UniProt P01579 24-161, looked up)
Interferon gamma: QDPYVKEAENLKKYFNAGHSDVADNGTLFLGILKNWKEESDRKIMQSQIVSFYFKLFKNFKDDQSIQKSVETIKEDMNVKFFNSNKKKRDDFEKLTNYSVTDLNVQRKAIHELIQVMAELSPAAKTGKRKRSQMLFRG
Effect of depleting the cytokine from the mix on activity of the complete cocktail [4]: did not significantly decrease the activity

B3: IL-17F: cytokine of the same family as IL-17A (protein, UniProt Q96PD4 31-163, looked up)
Interleukin-17F: RKIPKVGHTFFQKPESCPPVPGGSMKLDIGIINENQRVSMSRNIESRSTSPWNYTVTWDPNRYPSEVVQAQCRNLGCINAQGKEDISMNSVPIQQETLVVRRKHQGCSVSFQLEKVLVTVGCTCVTPVIHHVQ
Redundancy with the family member it replaces in M5 (BD2 and CXCL8 production) [3]: limited redundancy

B4: IL-24: cytokine of the same family as IL-22 (protein, UniProt Q13007 52-206, looked up)
Interleukin-24: QEFHFGPCQVKGVVPQKLWEAFWAVKDTMQAQDNITSARLLQQEVLQNVSDAESCYLVHTLLEFYLKTVFKNYHNRTVEVRTLKSFSTLANNFVLIVSQLQPSQENEMFSIRDSAHRRFLLFRRAFKQLDVEAALTKALGEVDILLTWMQKFYKL
Number of genes (of 154) whose expression is modified with at least a three fold increase or decrease [2]: at least five genes | Redundancy with the family member it replaces in M5 (BD2 and CXCL8 production) [3]: limited redundancy
